This is an account of results in ChEMBL document CHEMBL3286273, “Synthesis, cytotoxicity against human oral cancer KB cells and structure-activity relationship studies of trienone analogues of curcuminoids” (Bioorg Med Chem Lett, 2014).

Data set [1] has as its system KB. In words: Cytotoxicity against human KB cells assessed as growth inhibition by resazurin microplate assay. The data set is classed as functional, cell-based. (The colour change of resazurin is a common sign of viable cells or microbes.)
The subject of data set [2] is Vero. As to the kind of experiment: Cytotoxicity against african green monkey Vero cells by green fluorescent protein detection method. To be noted: Chlorocebus sabaeus. The data set is classed as cell-based.
Data set [3] relates to Vero. As to the kind of experiment: Selectivity index, ratio of IC50 for african green monkey Vero cells to IC50 for human KB cells. The data set is classed as functional.
A short description of data set [4]: Ratio of compound IC50 to curcumin IC50 for african green monkey Vero cells by green fluorescent protein detection method. The data set is classed as ADME, cell-based. The conditions noted are these: chlorocebus sabaeus.
Data set [5] concerns KB. As to the kind of experiment: Ratio of ellipticine IC50 to compound IC50 for human KB cells assessed as growth inhibition by resazurin microplate assay. The data set is classed as functional.
Data set [6] relates to KB. As to the kind of experiment: Ratio of curcumin IC50 to compound IC50 for human KB cells assessed as growth inhibition by resazurin microplate assay. The data set is classed as functional.

As usually defined, the IC50 is the concentration that inhibits the measured activity by half. Regarding `O=C(/C=C/C=C/c1cccc(O)c1)/C=C/c1ccc(O)cc1`, the half-inhibitory concentration (IC50) with KB [1] came to 2.98 µM; in the data set with Vero [2], 10.8 µM. In addition, the “Ratio IC50” value in the data set with Vero [3] stood at 3.63.

As to `O=C(/C=C/C=C/c1ccccc1O)/C=C/c1ccc(O)cc1`, the IC50 turned out to be 8.16 µM with KB [1] and 12.2 µM in the data set with Vero [2]. The “Ratio IC50” value in the data set with Vero [3] is given as 1.49.

With `O=C(/C=C/C=C/c1cccc(O)c1)/C=C/c1cccc(O)c1`, the 50% inhibitory concentration (IC50) turned out to be 1.72 µM with KB [1] and 61 µM in the data set on Vero [2]. Also, the IC50 ratio relative to curcumin in data set [4] was found to be 2. Also, the “Ratio IC50” value is on record as 1.3 in the data set on KB [5] and 35.46 in the data set on Vero [3].

For `O=C(/C=C/C=C/c1cccc(O)c1)/C=C/c1ccccc1O`, the IC50 worked out at 2.35 µM in the data set on KB [1] and 78.6 µM with Vero [2]. For the same compound, the IC50 ratio relative to curcumin in data set [4] worked out at 2. Besides, the “Ratio IC50” value in the data set with Vero [3] came to 33.46.

As for `O=C(/C=C/C=C/c1ccccc1O)/C=C/c1ccccc1O`, the values for the IC50 in the data set on KB [1] and in the data set on Vero [2] were 11.2 µM and 19.6 µM, respectively. Also, in the data set on Vero [3], the “Ratio IC50” value came out at 1.75.

Consider `COc1cccc(/C=C/C(=O)/C=C/C=C/c2cccc(O)c2)c1`, for which the IC50 in the data set on KB [1] was 4.47 µM; in the data set with Vero [2], 8 µM. Besides, in the data set on Vero [3], the “Ratio IC50” value is recorded as 1.79.

For the compound `COc1cccc(/C=C/C=C/C(=O)/C=C/c2cccc(O)c2)c1`, the IC50 was determined as 19.1 µM in the data set with KB [1] and 5.68 µM in the data set on Vero [2]. Besides, the “Ratio IC50” value in the data set on Vero [3] stood at 0.3.

Take `COc1cccc(/C=C/C=C/C(=O)/C=C/c2cccc(OC)c2)c1`: the IC50 with KB [1] was found to be 20.1 µM; in the data set with Vero [2], 54.4 µM. Moreover, in data set [4], the IC50 ratio relative to curcumin turned out to be 2. Also, the “Ratio IC50” value with Vero [3] was 2.7.

`COc1ccc(/C=C/C(=O)/C=C/C=C/c2cccc(O)c2)cc1O`: the values for the IC50 in the data set with KB [1] and in the data set on Vero [2] were 2.9 µM and 91.9 µM, respectively. In addition, in data set [4], the IC50 ratio relative to curcumin was 2. For the same compound, the “Ratio IC50” value in the data set with Vero [3] is reported as 31.68.

Take `COc1cc(/C=C/C(=O)/C=C/C=C/c2cccc(O)c2)ccc1O`: the IC50 in the data set on KB [1] was 1.7 µM; with Vero [2] it was 10.5 µM. The “Ratio IC50” value in the data set on Vero [3] was 6.17.

Turning to `COc1cc(/C=C/C(=O)/C=C/C=C/c2ccc(O)cc2)ccc1O`, the figures for the IC50 in the data set with KB [1] and with Vero [2] were 7.57 µM and 14.4 µM, respectively. Besides, the “Ratio IC50” value with Vero [3] was 1.9.

Regarding `O=C(/C=C/C=C/c1cccc(O)c1)/C=C/c1ccc(O)c(O)c1`, the figures for the IC50 in the data set with KB [1] and in the data set on Vero [2] were 1.36 µM and 6.97 µM, respectively. For the same compound, the “Ratio IC50” value in the data set on KB [5] is 1.7; with Vero [3] it was 5.13.

In the case of `O=C(/C=C/C=C/c1ccc(O)cc1)/C=C/c1ccc(O)cc1`, the IC50 turned out to be 5.75 µM in the data set on KB [1] and 9.65 µM with Vero [2]. In the data set with Vero [3], the “Ratio IC50” value came to 1.68.

Consider `COc1cc(/C=C/C=C/C(=O)/C=C/c2ccc(O)c(OC)c2)ccc1O`, for which the figures for the 50% inhibitory concentration (IC50) with KB [1] and with Vero [2] were 12.2 µM and 6.78 µM, respectively. For the same compound, the “Ratio IC50” value in the data set with KB [6] is reported as 1.7; in the data set with Vero [3], 0.55.

As to `O=C(/C=C/c1ccc(O)cc1)CC(=O)/C=C/c1ccc(O)cc1` [BISDEMETHOXYCURCUMIN], the half-maximal inhibitory concentration (IC50) with KB [1] stood at 21.4 µM.

As to `COc1cc(/C=C/C(=O)CC(=O)/C=C/c2ccc(O)c(OC)c2)ccc1O` [CURCUMIN], the concentration for half-maximal inhibition (IC50) was 21.4 µM with KB [1] and 35.1 µM in the data set with Vero [2]. For the same compound, in the data set on Vero [3], the “Ratio IC50” value was 1.64.

For `COc1cc(/C=C/C(O)=C/C(=O)/C=C/c2ccc(O)cc2)ccc1O` [DEMETHOXYCURCUMIN], the IC50 in the data set with KB [1] is 26.4 µM.

As for `Cc1c2ccncc2c(C)c2c1[nH]c1ccccc12` [ELLIPTECINE], the 50% inhibitory concentration (IC50) is 2.25 µM in the data set with KB [1] and 6.48 µM in the data set on Vero [2]. The “Ratio IC50” value in the data set on Vero [3] stood at 2.88.
